≈ marks a conversion by molar mass, not a printed value.
Tests used:
physchem [1] = conditions: octanol/water
Description: GSK_TB: GSK in-house hydrophobicity assay (logP)

physchem [2] = conditions: phosphate buffered saline, pH 7.4
[3] = tested on: Mycobacterium tuberculosis H37Rv; experiment: microbe, parasite or virus in culture
Description: GSK_TB: Intracellular minimum inhibitory concentration (MIC) H37Rv assay

physchem [4] = conditions: buffer, pH 7.4
Description: GSK_TB: GSK in-house hydrophobicity assay at pH7.4 (logD)

| SMILES | logP (physchem [1]) | solubility kinetic (physchem [2]) [µM] | MIC90 [3] [µM] | logD (physchem [4]) |
| --- | --- | --- | --- | --- |
| CC1=Nc2ccccc2CN1CC(O)c1cc(Br)cs1 (stereo not given) | 4.12 | 563 (≈ 198 µg/mL) | 7.85 (≈ 2.76 µg/mL) | 2.46 |
| Cc1ccc(SCCNC(=O)c2c(-c3ccccc3)noc2C)cc1 | 6.68 | 50 (≈ 17.6 µg/mL) | 7.76 (≈ 2.74 µg/mL) | 6.37 |
| N#Cc1ccc2c(c1)CCN(CCCSc1ccnc3cc(C(F)(F)F)ccc13)CC2 | 8.64 | 1 (≈ 0.442 µg/mL) | 2.4 (≈ 1.06 µg/mL) | 7.96 |
| OC1(c2ccccc2)Oc2ccccc2N=C1c1ccccc1 (stereo not given) | 6.19 | 263 (≈ 79.3 µg/mL) | 6.68 (≈ 2.01 µg/mL) | 6.09 |
| c1ccc(CCNc2cc(-c3ccccc3)nc3nncn23)cc1 | 5.13 | 6 (≈ 1.89 µg/mL) | 5.5 (≈ 1.73 µg/mL) | 4.97 |
| O=C(Nc1nnc(-c2ccc(Cl)cc2)o1)c1cccc(C(F)(F)F)c1 | 6.29 | 1 (≈ 0.368 µg/mL) | 5.62 (≈ 2.07 µg/mL) | 4.51 |
| COc1ccc2nc(C)cc(OCC(=O)NCc3ccccc3)c2c1 | 3.92 | 96 (≈ 32.3 µg/mL) | 1.1 (≈ 0.37 µg/mL) | 3.86 |
| Cc1cc(NCCc2ccccc2)nc(NC(=N)Nc2ccc(Cl)cc2)n1 | 6.74 | 73 (≈ 27.8 µg/mL) | 2.37 (≈ 0.903 µg/mL) | 4 |
| Cc1nc2ccccn2c1C(=O)NCc1cccs1 | 2.93 | 365 (≈ 99 µg/mL) | 9.02 (≈ 2.45 µg/mL) | 2.92 |
| Cc1ccc2nc(C(F)(F)F)c(C(=O)NCc3ccco3)n2c1 | 4.48 | 159 (≈ 51.4 µg/mL) | 3.89 (≈ 1.26 µg/mL) | 4.32 |
| COc1ccccc1OCCCCn1c(C2CC2)nc2ccccc21 | 5.83 | 167 (≈ 56.2 µg/mL) | 3.4 (≈ 1.14 µg/mL) | 5.63 |
| O=C(C1CCN(c2nnc(-n3cccc3)s2)CC1)N1CCC(Cc2ccccc2)CC1 | 6.78 | 1 (≈ 0.436 µg/mL) | 4.2 (≈ 1.83 µg/mL) | 6.37 |
| COc1ccc(Nc2ccccc2NC(=O)c2ccc(O)nc2)cc1 | 2.97 | 362 (≈ 121 µg/mL) | 7.08 (≈ 2.37 µg/mL) | 2.92 |
| c1ccc(Cc2nnc(Sc3ccnc(N4CCN(c5ccncc5)CC4)n3)n2CCN2CCOCC2)cc1 | 3.12 | 186 (≈ 101 µg/mL) | 7.85 (≈ 4.27 µg/mL) | 2.18 |
| O=C(c1cc2c(s1)CCC2)N1CCN(Cc2ccc3c(c2)OCO3)CC1 | 6.34 | 117 (≈ 43.3 µg/mL) | 5.3 (≈ 1.96 µg/mL) | 6.09 |
| CCc1nc2ccccc2n1CC(O)COc1cc(C)ccc1Cl (stereo not given) | 5.63 | 1 (≈ 0.345 µg/mL) | 8.81 (≈ 3.04 µg/mL) | 5.35 |
| CN1CCN(c2cc(-c3ccc(F)cc3)nc(-c3ccncc3)n2)CC1 | 5.73 | 44 (≈ 15.4 µg/mL) | 7.41 (≈ 2.59 µg/mL) | 5.07 |
| N=C(N)c1ccc(CCN2CCC(c3nc(COCC(F)(F)F)c(-c4ccc(F)cc4)o3)CC2)cc1.O=C(O)C(F)(F)F.O=C(O)C(F)(F)F | 6.14 | 255 | 6.17 | 3.76 |
| Cc1ccc2nc(C(F)(F)F)c(C(=O)NCc3cccc(OC(C)C)c3)n2c1 | 6.43 | 1 (≈ 0.391 µg/mL) | 2.1 (≈ 0.822 µg/mL) | 6.19 |
| O=C(N[C@@H](Cc1ccccc1)C(=O)Nc1ccccc1N1CCOCC1)c1cccs1 | 5.78 | 52 (≈ 22.6 µg/mL) | 6.6 (≈ 2.87 µg/mL) | 5.53 |
| Br.CC1(C)N=C(N)N=C(N)N1OCCc1ccc2ccccc2c1 | 4.23 | 201 | 2.32 | 2.92 |
| N#Cc1nc(-c2ccccc2F)oc1NCCc1ccccc1 | 6.63 | 3 (≈ 0.922 µg/mL) | 2.79 (≈ 0.856 µg/mL) | 6.37 |
| Br.CC1(C)NC(N)=NC(=N)N1OCCCOc1ccc(Cl)cc1Cl | 4.83 | 337 | 3.55 | 3.39 |

| SMILES | logP (physchem [1]) | solubility kinetic (physchem [2]) [µM] | MIC90 [3] [µM] | logD (physchem [4]) |
| --- | --- | --- | --- | --- |
| CC(C)OC(=O)COc1ccc(-c2cnc(N(C)CCc3ccncc3)nc2)cc1 | 5.93 | 182 (≈ 74 µg/mL) | 6.76 (≈ 2.75 µg/mL) | 5.63 |
| Cc1ccc(CNC(=O)c2cnn3c2NC(c2ccc(C)cc2)CC3C(F)F)cc1 (stereo not given) | 7.09 | 1 (≈ 0.41 µg/mL) | 1.23 (≈ 0.505 µg/mL) | 6.84 |
| COc1ccc(-c2ccc(Nc3cccc(S(=O)(=O)CCNCCc4cccs4)c3)nc2)cn1 | 5.83 | 1 (≈ 0.495 µg/mL) | 7.59 (≈ 3.75 µg/mL) | 5.63 |
| COc1ccc(-c2nsc(SCC(=O)N3CCCC3)n2)cc1 | 5.27 | 10 (≈ 3.35 µg/mL) | 1.6 (≈ 0.538 µg/mL) | 4.97 |
| Nc1nc(N)c2c(Sc3ccc4ccccc4c3)cccc2n1 | 4.72 | 32 (≈ 10.2 µg/mL) | 8.71 (≈ 2.77 µg/mL) | 4.41 |
| Cc1nc2ccccn2c1C(=O)NCc1ccc2c(c1)OCO2 | 3.02 | 357 (≈ 110 µg/mL) | 2.9 (≈ 0.897 µg/mL) | 3.02 |
| Cc1cnc(N2CCN[C@@H](Cc3ccccc3)C2)nc1Oc1ccc(-n2ccnc2)cc1.O=C(O)C(F)(F)F | 5.03 | 228 | 9.23 | 4.04 |
| COc1ccc(-c2nc(-c3cccc(NC(=O)Cc4ccc(F)cc4)c3)no2)cc1OC | 6.68 | 102 (≈ 44.2 µg/mL) | 3.7 (≈ 1.6 µg/mL) | 6.37 |
| Nc1cccnc1Nc1ccc(C(F)(F)F)cc1 | 5.03 | 328 (≈ 83.1 µg/mL) | 2.24 (≈ 0.567 µg/mL) | 4.97 |
| CNc1nc(SC)nc2ccsc12 | 3.3 | 439 (≈ 92.8 µg/mL) | 3.4 (≈ 0.718 µg/mL) | 3.3 |
| CCc1ccc(S(=O)(=O)Nc2cc(CN3CCN(CCC(C)C)CC3)ccc2C)cc1.O=C(O)C(F)(F)F.O=C(O)C(F)(F)F | 7.74 | 313 | 4.68 | 6.28 |
| Clc1ccc(CCNc2cc(-c3ccccc3)nc3ncnn23)cc1 | 5.73 | 1 (≈ 0.35 µg/mL) | 1.5 (≈ 0.525 µg/mL) | 5.53 |
| Fc1ccccc1-c1noc(N2CCN(Cc3ccc4c(c3)OCO4)CC2)n1 | 6.94 | 10 (≈ 3.82 µg/mL) | 5.2 (≈ 1.99 µg/mL) | 6.56 |
| Cc1ccc(C(=O)Nc2nc(-c3ccccn3)cs2)s1 | 4.61 | 15 (≈ 4.52 µg/mL) | 8.41 (≈ 2.54 µg/mL) | 4.6 |
| O=C(C=Cc1ccco1)N1CCN(Cc2ccc3c(c2)OCO3)CC1 | 4.72 | 186 (≈ 63.3 µg/mL) | 4.6 (≈ 1.57 µg/mL) | 4.51 |
| O=C(CCCSc1ccccc1)NNC(=O)c1cccs1 | 3.77 | 559 (≈ 179 µg/mL) | 8.32 (≈ 2.67 µg/mL) | 3.67 |
| Cl.O=C(c1ccco1)N(CCCn1ccnc1)c1nc2c(Cl)cccc2s1 | 5.63 | 21 | 8.41 | 5.25 |
| Cc1ccc2[nH]c(C3CCCNC3)c(-c3ccncc3)c2c1 (stereo not given) | 3.72 | 267 (≈ 77.8 µg/mL) | 7.67 (≈ 2.24 µg/mL) | 2.18 |
| CC(C)c1ccc(-c2cncc(N3CCN(c4ccncc4)CC3)n2)cc1 | 6.74 | 89 (≈ 32 µg/mL) | 8.32 (≈ 2.99 µg/mL) | 4.79 |
| N#Cc1nc(-c2ccccc2)oc1S(=O)(=O)c1ccc(Cl)cc1 | 7.48 | 1 (≈ 0.345 µg/mL) | 8.9 (≈ 3.07 µg/mL) | 7.12 |
| COc1cc2ccccc2cc1C(=O)NCc1cccc(-c2ccccc2OC)c1 | 7.58 | 84 (≈ 33.4 µg/mL) | 2.2 (≈ 0.874 µg/mL) | 7.21 |
| Br.Cc1ccccc1OCCCON1C(=N)N=C(N)NC1(C)C | 3.92 | 436 | 3.76 | 2.83 |
